Molecular target: T1, CDC25B (Homo sapiens, UniProt P30305)
T1 sequence (P30305 431-538 limits assumed): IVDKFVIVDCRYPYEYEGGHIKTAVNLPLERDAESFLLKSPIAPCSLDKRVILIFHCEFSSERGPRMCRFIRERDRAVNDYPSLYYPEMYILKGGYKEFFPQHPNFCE
Assay: In vitro CDC25B enzyme inhibition assay
Assay type: biochemical

CDC25B IC50: 0.13 ± 0.02 µg/mL
SMILES: [Na+].[Na+].[Na+].[O]=[V]([O-])([O-])[O-] [Na3VO4]

— publication PMC6130795 (ACS Omega, 2018)
